Assay results: ChEMBL document CHEMBL5356973 (J Med Chem, 2023)
Active and inactive are the calls of the source. No cut-off for these calls is given here.

Assays:
[1] = target: T1, Delta-type opioid receptor (Homo sapiens, UniProt P41143); experiment: Agonist activity at DOR (unknown origin) transfected in CHO cells co-expressing Galphaq15 assessed as increase in calcium mobilization by Fluo-4AM dye based assay; format: functional, cell-based
[2] = Agonist activity at NPFF1R (unknown origin) transfected in CHO cells co-expressing Galphaq15 assessed as increase in calcium mobilization by measuring maximal efficacy by Fluo-4AM dye based assay relative to control; format: functional, cell-based; conditions: Homo sapiens, filed as agonist
Mus musculus [3] = experiment: Antinociceptive activity in Kunming mouse assessed as changes in tail flick latency at 26.1 nmol/kg, sc pretreated with naloxone methiodide at 5 nmol, icv for 10 mins followed by compound addition and measured for 360 mins by tail-flick test; format: functional, organism-based
[4] = Metabolic stability in mouse plasma assessed as degradation half life at 10 mM measured upto 480 mins by RP-HPLC analysis; format: ADME, cell-free
[5] = target: T1, Delta-type opioid receptor; experiment: Agonist activity at DOR (unknown origin) transfected in CHO cells co-expressing Galphaq15 assessed as increase in calcium mobilization by measuring maximal efficacy by Fluo-4AM dye based assay relative to control; format: functional, cell-based; conditions: filed as agonist
[6] = target: T2, Kappa-type opioid receptor (Homo sapiens, UniProt P41145); experiment: Agonist activity at KOR (unknown origin) transfected in CHO cells co-expressing Galphaq15 assessed as increase in calcium mobilization by measuring maximal efficacy by Fluo-4AM dye based assay relative to control; format: functional, cell-based; conditions: filed as agonist
Mu-type opioid receptor [7] = target: T3, Mu-type opioid receptor (Homo sapiens, UniProt P35372); experiment: Agonist activity at MOR (unknown origin) transfected in CHO cells co-expressing Galphaq15 assessed as increase in calcium mobilization by measuring maximal efficacy by Fluo-4AM dye based assay relative to control; format: functional, cell-based; conditions: filed as agonist
[8] = target: T2, Kappa-type opioid receptor; experiment: Agonist activity at KOR (unknown origin) transfected in CHO cells co-expressing Galphaq15 assessed as increase in calcium mobilization by Fluo-4AM dye based assay; format: functional, cell-based
Mus musculus [9] = experiment: Antinociceptive activity in Kunming mouse assessed as changes in tail flick latency by measuring maximal possible effect at 26.1 nmol/kg, sc measured after 20 mins by tail-flick test; format: functional
[10] = target: T4, Neuropeptide FF receptor 2 (Homo sapiens, UniProt Q9Y5X5); experiment: Agonist activity at NPFF2R (unknown origin) transfected in HEK293 cells co-expressing Galphaq15 assessed as increase in calcium mobilization by Fluo-4AM dye based assay; format: functional, cell-based
[11] = Metabolic stability in mouse brain homogenate assessed as degradation half life at 10 mM measured upto 480 mins by RP-HPLC analysis; format: ADME, tissue-based
Mus musculus [12] = experiment: Antinociceptive activity in Kunming mouse assessed as changes in tail flick latency by measuring maximal possible effect at 26.1 nmol/kg, sc measured after 30 mins by tail-flick test; format: functional; conditions: 0.5 h
Mus musculus [13] = experiment: Antinociceptive activity in Kunming mouse assessed as changes in tail flick latency by measuring time duration of antinociceptive effect at 26.1 nmol/kg, sc by tail-flick test; format: functional
Mu-type opioid receptor [14] = target: T3, Mu-type opioid receptor; experiment: Agonist activity at MOR (unknown origin) transfected in CHO cells co-expressing Galphaq15 assessed as increase in calcium mobilization by Fluo-4AM dye based assay; format: functional, cell-based
[15] = target: T4, Neuropeptide FF receptor 2; experiment: Agonist activity at NPFF2R (unknown origin) transfected in HEK293 cells co-expressing Galphaq15 assessed as increase in calcium mobilization by measuring maximal efficacy by Fluo-4AM dye based assay relative to control; format: functional, cell-based; conditions: filed as agonist
Mus musculus [16] = experiment: Antinociceptive activity in Kunming mouse assessed as changes in tail flick latency by measuring maximal possible effect at 26.1 nmol/kg, sc measured after 240 mins by tail-flick test; format: functional; conditions: 4 h
Mus musculus [17] = experiment: Antinociceptive activity in Kunming mouse assessed as changes in tail flick latency by measuring maximal possible effect at 26.1 nmol/kg, sc measured after 60 mins by tail-flick test; format: functional; conditions: 1 h
Mus musculus [18] = experiment: Antinociceptive activity in Kunming mouse assessed as changes in tail flick latency by measuring maximal possible effect at 26.1 nmol/kg, sc measured after 120 mins by tail-flick test; format: functional; conditions: 2 h
Mus musculus [19] = experiment: Antinociceptive activity in Kunming mouse assessed as changes in tail flick latency by measuring maximal possible effect at 8.8 nmol/kg, sc measured after 120 mins by tail-flick test; format: functional; conditions: 2 h
Mus musculus [20] = experiment: Antinociceptive activity in Kunming mouse assessed as changes in tail flick latency by measuring maximal possible effect at 8.8 nmol/kg, sc measured after 60 mins by tail-flick test; format: functional; conditions: 1 h
Mus musculus [21] = experiment: Antinociceptive activity in Kunming mouse assessed as changes in tail flick latency at 8.8 nmol/kg, sc pretreated with naloxone methiodide at 5 nmol, icv for 10 mins followed by compound addition and measured for 360 mins by tail-flick test; format: functional, organism-based
Mus musculus [22] = experiment: Antinociceptive activity in Kunming mouse assessed as changes in tail flick latency by measuring time duration of antinociceptive effect at 8.8 nmol/kg, sc by tail-flick test; format: functional
Mus musculus [23] = experiment: Antinociceptive activity in Kunming mouse assessed as changes in tail flick latency by measuring maximal possible effect at 8.8 nmol/kg, sc measured after 20 mins by tail-flick test; format: functional
Mus musculus [24] = experiment: Antinociceptive activity in Kunming mouse assessed as changes in tail flick latency by measuring maximal possible effect at 8.8 nmol/kg, sc measured after 240 mins by tail-flick test; format: functional; conditions: 4 h
Mus musculus [25] = experiment: Antinociceptive activity in Kunming mouse assessed as changes in tail flick latency by measuring maximal possible effect at 8.8 nmol/kg, sc measured after 30 mins by tail-flick test; format: functional; conditions: 0.5 h

T1 sequence (P41143 whole entry): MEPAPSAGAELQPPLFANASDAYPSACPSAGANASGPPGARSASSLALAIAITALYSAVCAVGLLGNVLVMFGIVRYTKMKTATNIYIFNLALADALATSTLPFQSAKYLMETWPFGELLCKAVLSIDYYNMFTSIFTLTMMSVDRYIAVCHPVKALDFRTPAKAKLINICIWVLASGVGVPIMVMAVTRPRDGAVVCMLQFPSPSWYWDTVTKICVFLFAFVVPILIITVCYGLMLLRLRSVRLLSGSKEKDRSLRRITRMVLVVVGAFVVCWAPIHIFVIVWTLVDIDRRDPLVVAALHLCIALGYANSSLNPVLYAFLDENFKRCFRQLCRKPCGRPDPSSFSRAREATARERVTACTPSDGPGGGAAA
T3 sequence (P35372 whole entry): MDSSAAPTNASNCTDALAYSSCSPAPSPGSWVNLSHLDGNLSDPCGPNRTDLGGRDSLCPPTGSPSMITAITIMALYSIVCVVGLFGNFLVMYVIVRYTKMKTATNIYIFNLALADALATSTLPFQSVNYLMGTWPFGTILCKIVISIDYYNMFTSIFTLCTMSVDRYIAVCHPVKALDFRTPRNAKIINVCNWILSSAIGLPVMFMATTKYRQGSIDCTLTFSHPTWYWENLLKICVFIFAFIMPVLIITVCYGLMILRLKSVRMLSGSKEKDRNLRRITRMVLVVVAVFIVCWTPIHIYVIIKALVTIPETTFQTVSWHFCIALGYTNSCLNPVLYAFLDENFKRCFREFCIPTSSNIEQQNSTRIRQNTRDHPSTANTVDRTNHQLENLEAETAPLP
T2 sequence (P41145 whole entry): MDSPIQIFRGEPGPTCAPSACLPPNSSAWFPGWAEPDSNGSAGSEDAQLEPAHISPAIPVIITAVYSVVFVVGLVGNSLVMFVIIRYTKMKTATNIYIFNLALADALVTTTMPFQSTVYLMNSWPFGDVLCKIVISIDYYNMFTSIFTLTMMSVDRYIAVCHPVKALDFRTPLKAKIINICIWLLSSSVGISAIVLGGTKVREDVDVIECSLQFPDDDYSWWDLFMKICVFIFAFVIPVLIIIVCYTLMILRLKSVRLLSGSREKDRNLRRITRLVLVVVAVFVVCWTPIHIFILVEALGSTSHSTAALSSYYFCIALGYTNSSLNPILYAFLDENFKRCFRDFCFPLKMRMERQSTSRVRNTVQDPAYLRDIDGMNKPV
T4 sequence (Q9Y5X5 whole entry): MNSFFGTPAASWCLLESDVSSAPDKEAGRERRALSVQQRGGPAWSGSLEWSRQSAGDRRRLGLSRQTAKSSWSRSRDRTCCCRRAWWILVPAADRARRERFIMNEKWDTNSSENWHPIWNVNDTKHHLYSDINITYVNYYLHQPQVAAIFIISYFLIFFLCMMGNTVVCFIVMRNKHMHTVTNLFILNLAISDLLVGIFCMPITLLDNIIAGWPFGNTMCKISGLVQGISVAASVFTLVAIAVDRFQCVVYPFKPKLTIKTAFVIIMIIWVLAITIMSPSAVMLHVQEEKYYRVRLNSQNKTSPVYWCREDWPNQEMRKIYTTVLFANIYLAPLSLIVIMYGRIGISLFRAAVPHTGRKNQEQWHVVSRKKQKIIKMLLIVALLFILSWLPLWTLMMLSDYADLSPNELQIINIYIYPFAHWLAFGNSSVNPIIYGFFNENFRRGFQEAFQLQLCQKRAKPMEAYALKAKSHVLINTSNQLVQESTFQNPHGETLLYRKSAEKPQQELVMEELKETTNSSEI

Compound	EC50 [1] [nM]	Emax [2] [%]	Activity (Mus musculus [3])	half-life at 10000 µM [4] [h]	Emax [5] [%]	Emax [6] [%]	Emax (Mu-type opioid receptor [7]) [%]	EC50 [8] [nM]	MPE (Mus musculus [9]) [%]	EC50 [10] [nM]	half-life at 10000 µM [11] [h]	MPE (Mus musculus [12]) [%]	Time (Mus musculus [13]) [min]	EC50 (Mu-type opioid receptor [14]) [nM]	Emax [15] [%]	MPE (Mus musculus [16]) [%]	MPE (Mus musculus [17]) [%]	MPE (Mus musculus [18]) [%]	MPE (Mus musculus [19]) [%]	MPE (Mus musculus [20]) [%]	also measured
CN1C(=O)CNC(=O)[C@H](N[C@@H](Cc2ccc(O)cc2)C(=O)O)CCCC/C=C\CC[C@@H](C(=O)N2CCC[C@H]2C(=O)N[C@@H](CCC(N)=O)C(=O)N[C@@H](CCCNC(=N)N)C(=O)N[C@@H](Cc2ccccc2)C(N)=O)NC(=O)[C@@H]1Cc1ccccc1	58.2	105	inactive	0.625	97.5	128	109	503	93	1080	1.95	93.7	360	92.3	88.6	36	77.4	73.5			
CN1C(=O)CNC(=O)[C@H](N[C@@H](Cc2ccc(O)cc2)C(=O)O)CCCC/C=C/CC[C@@H](C(=O)N2CCC[C@H]2C(=O)N[C@@H](CCC(N)=O)C(=O)N[C@@H](CCCNC(=N)N)C(=O)N[C@@H](Cc2ccccc2)C(N)=O)NC(=O)[C@@H]1Cc1ccccc1	13.4	91.9	inactive	1.01	73.8	100	84.6	132	91.9	9770	2.26	92.1	360	1.2	125	42.3	80.3	69			
CN1C(=O)CNC(=O)[C@@H](N[C@@H](Cc2ccc(O)cc2)C(=O)O)C/C=C/CCCC[C@H](C(=O)N2CCC[C@H]2C(=O)N[C@@H](CCC(N)=O)C(=O)N[C@@H](CCCNC(=N)N)C(=O)N[C@@H](Cc2ccccc2)C(N)=O)NC(=O)[C@@H]1Cc1ccccc1	8920	124		0.13	99.4	56.1	81	1230		3760	1.47			2900	40.9				71.5	79	Activity (Mus musculus [21]): inactive; Time (Mus musculus [22]): 360 min; MPE (Mus musculus [23]): 92.8%; MPE (Mus musculus [24]): 41.6%; MPE (Mus musculus [25]): 93.6%
CC(C)C[C@H](NC(=O)[C@@H](N)Cc1ccccc1)C(=O)N[C@@H](Cc1ccccc1)C(=O)N[C@@H](CCC(N)=O)C(=O)N1CCC[C@H]1C(=O)N[C@@H](CCC(N)=O)C(=O)N[C@@H](CCCN=C(N)N)C(=O)N[C@@H](Cc1ccccc1)C(N)=O		97.9																			
CN1C(=O)CNC(=O)[C@H](N[C@@H](Cc2ccc(O)cc2)C(=O)O)CCC/C=C/CC[C@@H](C(=O)N2CCC[C@H]2C(=O)N[C@@H](CCC(N)=O)C(=O)N[C@@H](CCCNC(=N)N)C(=O)N[C@@H](Cc2ccccc2)C(N)=O)NC(=O)[C@@H]1Cc1ccccc1	23.9	91.8		0.537	98.2	96.4	102	273		3110	1.83			7.6	118				74.2	72.1	Activity (Mus musculus [21]): inactive; Time (Mus musculus [22]): 360 min; MPE (Mus musculus [23]): 89.9%; MPE (Mus musculus [24]): 47.8%; MPE (Mus musculus [25]): 96.5%
